According to patent US9458110B2, “Phenylpyrazole derivatives as potent ROCK1 and ROCK2 inhibitors” (BRISTOL-MYERS SQUIBB COMPANY, priority 2013, dated 2016):

Tests used:
[1] = molecular target: ROCK1 (Homo sapiens (Human), UniProt Q13464); assay: ROCK assay (Caliper LABCHIP peptide phosphorylation), ROCK1; assay type: biochemical; conditions: 5 μM ATP, 1.5 μM peptide substrate;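 further: Read-out is separation of phosphorylated from unphosphorylated peptide, with kinase activity inhibition computed at every concentration of a dose-response series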
Sequence of ROCK1 (Q13464 whole entry, species assumed): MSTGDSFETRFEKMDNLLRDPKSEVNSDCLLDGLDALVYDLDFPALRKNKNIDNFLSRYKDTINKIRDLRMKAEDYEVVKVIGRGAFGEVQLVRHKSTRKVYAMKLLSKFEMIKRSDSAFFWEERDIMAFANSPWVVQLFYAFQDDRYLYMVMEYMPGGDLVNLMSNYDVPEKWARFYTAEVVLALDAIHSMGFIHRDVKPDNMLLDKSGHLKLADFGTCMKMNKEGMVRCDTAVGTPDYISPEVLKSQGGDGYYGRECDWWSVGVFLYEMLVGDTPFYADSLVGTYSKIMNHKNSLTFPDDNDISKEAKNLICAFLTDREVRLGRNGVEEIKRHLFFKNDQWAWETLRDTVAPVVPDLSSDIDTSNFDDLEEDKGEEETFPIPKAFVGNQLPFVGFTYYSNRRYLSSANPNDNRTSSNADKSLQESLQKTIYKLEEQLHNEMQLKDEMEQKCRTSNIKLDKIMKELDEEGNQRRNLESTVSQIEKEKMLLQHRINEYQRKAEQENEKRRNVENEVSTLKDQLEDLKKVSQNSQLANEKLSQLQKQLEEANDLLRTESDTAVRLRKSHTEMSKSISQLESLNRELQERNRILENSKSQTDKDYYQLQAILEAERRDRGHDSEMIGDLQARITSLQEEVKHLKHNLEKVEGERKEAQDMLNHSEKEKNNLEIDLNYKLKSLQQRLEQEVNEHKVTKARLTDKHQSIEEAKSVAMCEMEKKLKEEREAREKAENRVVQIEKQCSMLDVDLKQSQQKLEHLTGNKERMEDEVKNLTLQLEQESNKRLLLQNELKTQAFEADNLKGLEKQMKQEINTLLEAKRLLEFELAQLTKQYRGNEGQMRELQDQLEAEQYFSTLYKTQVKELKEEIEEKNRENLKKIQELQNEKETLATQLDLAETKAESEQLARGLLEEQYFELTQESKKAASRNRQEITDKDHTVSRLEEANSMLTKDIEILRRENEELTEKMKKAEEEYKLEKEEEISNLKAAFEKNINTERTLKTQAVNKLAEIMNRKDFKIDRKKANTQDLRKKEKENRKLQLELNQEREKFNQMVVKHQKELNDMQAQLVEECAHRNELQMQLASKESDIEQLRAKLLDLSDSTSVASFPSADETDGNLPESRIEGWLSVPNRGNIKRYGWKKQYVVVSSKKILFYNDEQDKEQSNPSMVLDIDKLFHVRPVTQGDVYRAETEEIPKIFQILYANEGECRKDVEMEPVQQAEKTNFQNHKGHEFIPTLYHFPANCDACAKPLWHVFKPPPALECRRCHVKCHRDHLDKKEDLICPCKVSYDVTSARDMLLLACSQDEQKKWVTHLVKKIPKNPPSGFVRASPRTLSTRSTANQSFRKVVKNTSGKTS

[2] = molecular target: ROCK2 (Homo sapiens (Human), UniProt O75116); assay: ROCK assay (Caliper LABCHIP peptide phosphorylation), ROCK2; assay type: biochemical; conditions: 5 μM ATP, 1.5 μM peptide substrate;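 further: reaction stopped with EDTA, then phosphorylated and unphosphorylated peptide resolved by microfluidic electrophoresis, kinase inhibition computed at each compound concentration in dose-response series, DMSO under 2%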
Sequence of ROCK2 (O75116 whole entry, species assumed): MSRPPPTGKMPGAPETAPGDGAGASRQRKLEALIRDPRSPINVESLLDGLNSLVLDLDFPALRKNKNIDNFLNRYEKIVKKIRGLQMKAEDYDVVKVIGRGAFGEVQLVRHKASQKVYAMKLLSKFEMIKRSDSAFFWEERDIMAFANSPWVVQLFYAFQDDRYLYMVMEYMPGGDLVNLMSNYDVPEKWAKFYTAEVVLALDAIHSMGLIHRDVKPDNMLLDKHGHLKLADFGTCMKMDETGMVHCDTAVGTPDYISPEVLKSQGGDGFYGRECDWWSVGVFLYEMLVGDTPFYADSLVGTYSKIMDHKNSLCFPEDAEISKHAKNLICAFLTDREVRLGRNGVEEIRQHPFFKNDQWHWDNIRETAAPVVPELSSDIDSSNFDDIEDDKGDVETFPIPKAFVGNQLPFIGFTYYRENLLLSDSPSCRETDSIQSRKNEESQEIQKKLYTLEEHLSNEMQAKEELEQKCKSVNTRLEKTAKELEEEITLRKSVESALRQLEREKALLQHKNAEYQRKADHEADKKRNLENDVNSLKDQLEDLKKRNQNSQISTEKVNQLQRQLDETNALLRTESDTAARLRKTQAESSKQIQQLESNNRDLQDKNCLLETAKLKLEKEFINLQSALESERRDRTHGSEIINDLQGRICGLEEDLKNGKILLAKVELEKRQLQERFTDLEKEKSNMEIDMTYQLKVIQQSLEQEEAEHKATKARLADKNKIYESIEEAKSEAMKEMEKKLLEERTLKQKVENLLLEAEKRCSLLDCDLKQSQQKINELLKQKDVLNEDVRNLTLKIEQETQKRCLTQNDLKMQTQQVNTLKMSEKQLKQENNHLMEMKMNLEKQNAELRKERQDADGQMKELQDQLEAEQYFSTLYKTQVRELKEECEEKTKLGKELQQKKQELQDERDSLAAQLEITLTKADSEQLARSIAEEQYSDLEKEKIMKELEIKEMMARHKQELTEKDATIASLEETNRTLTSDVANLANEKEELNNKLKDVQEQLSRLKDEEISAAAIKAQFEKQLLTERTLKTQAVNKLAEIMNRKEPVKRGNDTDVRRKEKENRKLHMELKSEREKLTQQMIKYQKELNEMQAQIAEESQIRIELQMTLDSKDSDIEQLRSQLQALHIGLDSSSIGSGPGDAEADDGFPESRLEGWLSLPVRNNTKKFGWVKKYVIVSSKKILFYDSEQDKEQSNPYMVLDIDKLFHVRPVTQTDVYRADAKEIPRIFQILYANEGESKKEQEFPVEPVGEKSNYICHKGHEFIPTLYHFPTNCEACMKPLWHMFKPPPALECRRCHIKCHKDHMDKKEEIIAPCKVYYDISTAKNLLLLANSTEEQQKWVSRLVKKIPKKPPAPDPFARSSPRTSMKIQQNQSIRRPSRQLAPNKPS

SMILES: COc1cc(-c2cn[nH]c2)ccc1C(=O)NC(c1ccccc1F)C(C)(C)O (centres unmarked) [Example 212, N-[1-(2-fluorophenyl)-2-hydroxy-2-methylpropyl]-2-methoxy-4-(1H-pyrazol-4-yl)benzamide]
- IC50 [1]: 37.3 nM
- IC50 [2]: 7.32 nM

SMILES: COc1ccc(F)c(C(C)NC(=O)c2ccc(-c3c[nH]nc3C)cc2OC)c1 (centres unmarked) [Example 213, N-[1-(2-fluoro-5-methoxyphenyl)ethyl]-2-methoxy-4-(3-methyl-1H-pyrazol-4-yl)benzamide]
- IC50 [1]: 15.6 nM
- IC50 [2]: 5.16 nM

SMILES: COc1cccc(CNC(=O)c2ccc(-c3cn[nH]c3)cc2N)c1 [Example 214, 2-amino-N-[(3-methoxyphenyl)methyl]-4-(1H-pyrazol-4-yl)benzamide]
- IC50 [1]: 131 nM
- IC50 [2]: 32.3 nM

SMILES: COc1cc(-c2cn[nH]c2)ccc1C(=O)N[C@H](CO)[C@H](O)c1ccccc1 [Example 215, N-[(1R,2R)-1,3-dihydroxy-1-phenylpropan-2-yl]-2-methoxy-4-(1H-pyrazol-4-yl)benzamide]
- IC50 [1]: 64.2 nM
- IC50 [2]: 23.4 nM

SMILES: COc1cc(C(=O)N[C@@H](Cc2ccccc2)[C@H](O)CO)ccc1-c1cn[nH]c1 [Example 216, N-[(2S,3S)-3,4-dihydroxy-1-phenylbutan-2-yl]-3-methoxy-4-(1H-pyrazol-4-yl)benzamide]
- IC50 [1]: 51.5 nM
- IC50 [2]: 11 nM

SMILES: COc1cc(-c2cn[nH]c2)ccc1C(=O)N[C@@H](Cc1ccccc1)[C@H](O)CO [Example 217, N-[(2S,3S)-3,4-dihydroxy-1-phenylbutan-2-yl]-2-methoxy-4-(1H-pyrazol-4-yl)benzamide]
- IC50 [1]: 15.4 nM
- IC50 [2]: 12.9 nM

SMILES: COc1cc(-c2cn[nH]c2)ccc1C(=O)NC(c1ccccc1F)C(C)(C)O (centres unmarked) [Example 218, N-[1-(2-fluorophenyl)-2-hydroxy-2-methylpropyl]-2-methoxy-4-(1H-pyrazol-4-yl)benzamide]
- IC50 [1]: 24.7 nM
- IC50 [2]: 6.52 nM

SMILES: COc1cc(-c2cn[nH]c2)ccc1C(=O)NC(c1ccccc1F)C(C)(C)O (centres unmarked) [Example 219, N-[1-(2-fluorophenyl)-2-hydroxy-2-methylpropyl]-2-methoxy-4-(1H-pyrazol-4-yl)benzamide]
- IC50 [1]: 585 nM
- IC50 [2]: 201 nM

SMILES: Nc1cc(-c2cn[nH]c2)ccc1C(=O)NCCCc1ccccc1 [Example 220, 2-amino-N-(3-phenylpropyl)-4-(1H-pyrazol-4-yl)benzamide]
- IC50 [1]: 321 nM
- IC50 [2]: 201 nM

SMILES: COc1cc(C(=O)NC(C)c2c(F)cccc2Cl)ccc1-c1cn[nH]c1 (centres unmarked) [Example 221, N-[1-(2-chloro-6-fluorophenyl)ethyl]-3-methoxy-4-(1H-pyrazol-4-yl)benzamide]
- IC50 [1]: 16.7 nM
- IC50 [2]: 3.43 nM

SMILES: COc1cc(C(=O)NC2(c3ccccc3)CCC2)ccc1-c1cn[nH]c1 [Example 222, 3-methoxy-N-(1-phenyl-cyclobutyl)-4-(1H-pyrazol-4-yl)benzamide]
- IC50 [1]: 146 nM
- IC50 [2]: 26 nM

SMILES: COc1cc(-c2cn[nH]c2)ccc1C(=O)NC(C)c1c(F)cccc1Cl (centres unmarked) [Example 223, N-[1-(2-chloro-6-fluorophenyl)ethyl]-2-methoxy-4-(1H-pyrazol-4-yl)benzamide]
- IC50 [1]: 59.6 nM
- IC50 [2]: 14.7 nM

SMILES: COc1cc(C(=O)N[C@@H](c2ccccc2)[C@H](O)CO)ccc1-c1cn[nH]c1 [Example 224, N-[(1S,2S)-2,3-dihydroxy-1-phenylpropyl]-3-methoxy-4-(1H-pyrazol-4-yl)benzamide]
- IC50 [1]: 8.55 nM
- IC50 [2]: 1.98 nM

SMILES: COc1cc(-c2cn[nH]c2)ccc1C(=O)N[C@@H](c1ccccc1)[C@H](O)CO [Example 225, N-[(1S,2S)-2,3-dihydroxy-1-phenylpropyl]-2-methoxy-4-(1H-pyrazol-4-yl)benzamide]
- IC50 [1]: 7.59 nM
- IC50 [2]: 1.09 nM

SMILES: COc1cc(-c2cn[nH]c2)ccc1C(=O)NC(C)c1c(F)cccc1F (centres unmarked) [Example 226, N-[1-(2,6-difluorophenyl)ethyl]-2-methoxy-4-(1H-pyrazol-4-yl)benzamide]
- IC50 [1]: 26.5 nM
- IC50 [2]: 5.13 nM

SMILES: COc1cc(-c2cn[nH]c2)ccc1C(=O)NC(C)c1c(F)cccc1F (centres unmarked) [Example 227, N-[1-(2,6-difluorophenyl)ethyl]-2-methoxy-4-(1H-pyrazol-4-yl)benzamide]
- IC50 [1]: > 2000 nM
- IC50 [2]: 1200 nM

SMILES: COc1ccc(F)c(C(C)NC(=O)c2ccc(-c3cn[nH]c3)cc2OC)c1 (centres unmarked) [Example 228, N-[1-(2-fluoro-5-methoxyphenyl)ethyl]-2-methoxy-4-(1H-pyrazol-4-yl)benzamide]
- IC50 [1]: 12.5 nM
- IC50 [2]: 3.05 nM

SMILES: COc1ccc(F)c(C(C)NC(=O)c2ccc(-c3cn[nH]c3)cc2OC)c1 (centres unmarked) [Example 229, N-[1-(2-fluoro-5-methoxyphenyl)ethyl]-2-methoxy-4-(1H-pyrazol-4-yl)benzamide]
- IC50 [1]: 182 nM
- IC50 [2]: 76.3 nM

SMILES: COc1cc(-c2cn[nH]c2)ccc1C(=O)NCc1cccc(S(N)(=O)=O)c1 [Example 230, 2-methoxy-4-(1H-pyrazol-4-yl)-N-[(3-sulfamoyl-phenyl)methyl] benzamide]
- IC50 [1]: 11.2 nM
- IC50 [2]: 1.86 nM

SMILES: COc1cc(C(=O)NCc2cccc(S(N)(=O)=O)c2)ccc1-c1cn[nH]c1 [Example 231, 3-methoxy-4-(1H-pyrazol-4-yl)-N-[(3-sulfamoyl-phenyl)methyl] benzamide]
- IC50 [1]: 15.2 nM
- IC50 [2]: 0.99 nM

SMILES: COc1cc(C(=O)NC(CN)Cc2ccccc2)ccc1-c1cn[nH]c1 (centres unmarked) [Example 232, N-(1-amino-3-phenylpropan-2-yl)-3-methoxy-4-(1H-pyrazol-4-yl)benzamide]
- IC50 [1]: 1.04 nM
- IC50 [2]: 0.36 nM

SMILES: COc1cc(-c2cn[nH]c2)ccc1C(=O)NC(CN)Cc1ccccc1 (centres unmarked) [Example 233, N-(1-amino-3-phenylpropan-2-yl)-2-methoxy-4-(1H-pyrazol-4-yl)benzamide]
- IC50 [1]: 4.6 nM
- IC50 [2]: 2.53 nM

SMILES: COc1cc(C(=O)NCc2cccc(C(=O)NCC(C)(C)O)c2)ccc1-c1cn[nH]c1 [Example 234, N-({3-[(2-hydroxy-2-methylpropyl)carbamoyl]phenyl}methyl)-3-methoxy-4-(1H-pyrazol-4-yl)benzamide]
- IC50 [1]: 3.24 nM
- IC50 [2]: 0.46 nM

SMILES: COc1cc(C(=O)NCc2cccc(C(=O)N(C)C)c2)ccc1-c1cn[nH]c1 [Example 235, N-{[3-(dimethyl-carbamoyl)phenyl]methyl}-3-methoxy-4-(1H-pyrazol-4-yl)benzamide]
- IC50 [1]: 499 nM
- IC50 [2]: 93.7 nM

SMILES: COc1cc(C(=O)NCc2cccc(C(=O)NCC3CC3)c2)ccc1-c1cn[nH]c1 [Example 236, N-({3-[(cyclopropyl-methyl)carbamoyl]phenyl}methyl)-3-methoxy-4-(1H-pyrazol-4-yl)benzamide]
- IC50 [1]: 1.79 nM
- IC50 [2]: 0.37 nM

SMILES: CCNC(=O)c1cccc(CNC(=O)c2ccc(-c3cn[nH]c3)c(OC)c2)c1 [Example 237, N-{[3-(ethylcarbamoyl)phenyl]methyl}-3-methoxy-4-(1H-pyrazol-4-yl)benzamide]
- IC50 [1]: 2.39 nM
- IC50 [2]: 0.4 nM

SMILES: COc1cc(C(=O)NCc2cccc(C(=O)NC3CC3)c2)ccc1-c1cn[nH]c1 [Example 238, N-{[3-(cyclopropyl-carbamoyl)phenyl]methyl}-3-methoxy-4-(1H-pyrazol-4-yl)benzamide]
- IC50 [1]: 2.44 nM
- IC50 [2]: 0.32 nM

SMILES: Cc1cc(C(=O)NCc2cccc(C(=O)O)c2)ccc1-c1cn[nH]c1 [Example 239, 3-({[3-methyl-4-(1H-pyrazol-4-yl)phenyl] formamido}methyl) benzoic acid]
- IC50 [1]: 61.4 nM
- IC50 [2]: 11.5 nM

SMILES: CCNC(=O)c1cccc(CNC(=O)c2ccc(-c3cn[nH]c3)c(C)c2)c1 [Example 240, N-{[3-(ethylcarbamoyl)phenyl]methyl}-3-methyl-4-(1H-pyrazol-4-yl)benzamide]
- IC50 [1]: 11.8 nM
- IC50 [2]: 2.61 nM

SMILES: CCN1CCC[C@H]1CNC(=O)c1cccc(CNC(=O)c2ccc(-c3cn[nH]c3)c(OC)c2)c1 [Example 241, N-{[3-({[(2S)-1-ethylpyrrolidin-2-yl]methyl}carbamoyl)phenyl]methyl}-3-methoxy-4-(1H-pyrazol-4-yl)benzamide]
- IC50 [1]: 1.54 nM
- IC50 [2]: 0.85 nM

SMILES: COc1cc(C(=O)NCc2ccc(F)c(C(=O)O)c2)ccc1-c1cn[nH]c1 [Example 242, 2-fluoro-5-({[3-methoxy-4-(1H-pyrazol-4-yl)phenyl] formamido}methyl) benzoic acid]
- IC50 [1]: 39.2 nM
- IC50 [2]: 4.41 nM

SMILES: Cc1cc(C(=O)NCc2cccc(C(=O)NCC3CC3)c2)ccc1-c1cn[nH]c1 [Example 243, N-({3-[(cyclopropyl-methyl)carbamoyl]phenyl}methyl)-3-methyl-4-(1H-pyrazol-4-yl)benzamide]
- IC50 [1]: 3.38 nM
- IC50 [2]: 0.5 nM

SMILES: Cc1cc(C(=O)NCc2cccc(C(=O)NC3CC3)c2)ccc1-c1cn[nH]c1 [Example 244, N-{[3-(cyclopropyl-carbamoyl)phenyl]methyl}-3-methyl-4-(1H-pyrazol-4-yl)benzamide]
- IC50 [1]: 4.22 nM
- IC50 [2]: 0.86 nM

SMILES: Cc1cc(C(=O)NCc2cccc(C(=O)NC[C@H]3CCCN3)c2)ccc1-c1cn[nH]c1 [Example 245, 3-methyl-4-(1H-pyrazol-4-yl)-N-[(3-{[(2R)-pyrrolidin-2-ylmethyl]carbamoyl}phenyl)methyl] benzamide]
- IC50 [1]: 2.46 nM
- IC50 [2]: 0.71 nM

SMILES: COc1cc(C(=O)NCc2cccc(C(=O)Nc3nc4c(s3)CNCC4)c2)ccc1-c1cn[nH]c1 [Example 246, 3-methoxy-4-(1H-pyrazol-4-yl)-N-{[3-({4H,5H,6H, 7H-[1,3]thiazolo[5,4-c]pyridin-2-yl}carbamoyl)phenyl]methyl} benzamide]
- IC50 [1]: 0.26 nM
- IC50 [2]: 0.23 nM

SMILES: COc1cc(C(=O)NCc2cccc(C(=O)Nc3nc4c(s3)CN(C)CC4)c2)ccc1-c1cn[nH]c1 [Example 247, 3-methoxy-N-{[3-({5-methyl-4H, 5H,6H,7H-[1,3]thiazolo [5,4-c]pyridin-2-yl}carbamoyl)phenyl]methyl}-4-(1H-pyrazol-4-yl)benzamide]
- IC50 [1]: 0.39 nM
- IC50 [2]: 0.33 nM

SMILES: COc1cc(C(=O)NCc2cccc(C(=O)NC3CCN(C)CC3)c2)ccc1-c1cn[nH]c1 [Example 248, 3-methoxy-N-({3-[(1-methylpiperidin-4-yl)carbamoyl]phenyl}methyl)-4-(1H-pyrazol-4-yl)benzamide]
- IC50 [1]: 0.43 nM
- IC50 [2]: 0.19 nM
